In the NIST ThermoML archive (doi:10.1021/je800503d):
Numbers after ± are expanded uncertainties.

Details: 298.15 K; 101.33 kPa; Liquid; Vibrating tube method

Row | mass density | SMILES
1 | 770.01 ± 0.24 kg/m3 | CCCCCCCCCCCCCCCC [hexadecane]
2 | 785.04 ± 0.13 kg/m3 | CCO [ethanol]
3 | 980.42 ± 0.23 kg/m3 | COCCOCCOCCOC [2,5,8,11-tetraoxadodecane]
4 | 1006.2 ± 0.24 kg/m3 | COCCOCCOCCOCCOC [2,5,8,11,14-pentaoxapentadecane]
